According to PMC7150766 (Viruses, 2020):

Legend:
[1] = test system: splenocytes from CVB4-infected A/J mice; assay: Proliferative response of splenocytes from CVB4-infected mice; assay type: cell-based; settings: peptide 2 days, then 3[H] thymidine 16 h, p ≤ 0.01 for VP1 721–740, Figure 6a
[2] = test system: LNCs and splenocytes from immunized mice; assay: Proliferative response, whole cells from VP1 peptide-immunized mice; assay type: cell-based, A/J mice

## VNTFVHESLADVQA [RNase 43–56, bovine ribonuclease (RNase) 43–56, irrelevant control peptide]
[1]
  Proliferative response (in words): the cells did not respond to control
[2]
  Proliferative response (in words): the cells did not react to control
